Measured values as given in PubChem BioAssay (NCI).
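Each compound was tested at five concentrations against cells in 96-well plates for 48 hours. GI50 = concentration required for 50% inhibition of growth. At the TGI there is no net growth.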

Experiments:
Test in all cases: growth of human tumour cells (NCI), 48 h
A549 NSCLC = tested on: A549 NSCLC
HCC-2998 colon = tested on: HCC-2998 colon
DU-145 prostate = tested on: DU-145 prostate
SK-MEL-2 melanoma = tested on: SK-MEL-2 melanoma
A498 renal = tested on: A498 renal
HL-60(TB) leukemia = tested on: HL-60(TB) leukemia
MOLT-4 leukemia = tested on: MOLT-4 leukemia
HT29 colon = tested on: HT29 colon
NCI/ADR-RES ovarian = tested on: NCI/ADR-RES ovarian
SF-268 CNS = tested on: SF-268 CNS

Row | Structure (SMILES) | TGI (A549 NSCLC) [µM] | GI50 (HCC-2998 colon) [µM] | TGI (HCC-2998 colon) [µM] | GI50 (DU-145 prostate) [µM] | TGI (DU-145 prostate) [µM] | TGI (SK-MEL-2 melanoma) [µM] | GI50 (A498 renal) [µM] | TGI (A498 renal) [µM] | GI50 (HL-60(TB) leukemia) [µM] | TGI (HL-60(TB) leukemia) [µM] | GI50 (MOLT-4 leukemia) [µM] | TGI (MOLT-4 leukemia) [µM] | TGI (HT29 colon) [µM] | TGI (NCI/ADR-RES ovarian) [µM] | GI50 (SF-268 CNS) [µM] | TGI (SF-268 CNS) [µM]
1 | C#Cc1cccc(Nc2ncnc3cc(OCCOC)c(OCCOC)cc23)c1 | > 100 | > 88.8 | > 100 | 1.6 | > 100 | 50.6 | 2.19 | 45.8 | 20.6 | > 100 | 24.2 | > 100 | > 100 | > 100 | 14.6 | > 100
2 | O=C1/C(=C(/Br)I)c2ccccc2-c2ccccc21 | 32 | – | 11.4 | – | 30 | 31.5 | – | 30.2 | – | 0.516 | – | 6.27 | 18.3 | 30.4 | – | 31.1
3 | CCOc1ccccc1N=NC1C(=O)N(C(=O)CC(=O)Nc2ccccc2OC)N=C1C (stereo unspecified) | > 100 | – | > 100 | – | > 100 | > 100 | – | > 100 | – | > 100 | – | > 100 | > 100 | > 100 | – | 68.8
4 | CC(=O)Nc1nc(C)c(S(=O)(=O)NC(=O)N2c3ccccc3CCc3ccccc32)s1 | > 100 | – | > 100 | – | > 100 | > 100 | – | > 100 | – | > 100 | – | > 100 | > 100 | > 100 | – | > 100
5 | C=C1CC(Cn2cc(Br)c(=O)[nH]c2=O)(c2ccc(Br)cc2)OC1=O (stereo unspecified) | 29 | – | 8.4 | – | 15.5 | 3.74 | – | 10.2 | – | 2.74 | – | 6.13 | 7.89 | 15.9 | – | 41.3
6 | CCOC(=O)COC1=Nc2cc(OC)c(OC)c3nc(Cl)cc(c23)C1=O | 18.3 | – | 10.5 | – | 3.32 | 4.09 | – | 23.5 | – | 0.879 | – | 5.91 | 6.37 | > 31.4 | – | 6.83
7 | COc1c(-c2ccc(F)cc2)oc2cc(O)cc(O)c2c1=O | > 100 | – | 31.9 | – | 96.5 | 64.3 | – | > 100 | – | 70.1 | – | > 100 | 44.6 | 63.5 | – | > 100
8 | CCC(=O)Nc1ccc(N2C(=O)/C(=C/c3ccc(O)c(OC)c3)N=C2c2ccccc2)cc1 | > 100 | – | > 100 | – | > 100 | 93.5 | – | 36.6 | – | > 100 | – | > 100 | > 100 | > 100 | – | > 100
9 | CC(=O)NCC1OC2COC(c3ccccc3)OC2C2N=C(c3ccccc3)OC12 (stereo unspecified) | > 100 | – | > 100 | – | > 100 | > 100 | – | > 100 | – | 52.9 | – | > 100 | > 100 | > 100 | – | > 100
10 | CC(C)CCCC(C)[C@H]1CC[C@H]2NCCCC[C@]12C (stereo partly specified) | 31.7 | – | 2.72 | – | 25.6 | 7.82 | – | 26.6 | – | 5.91 | – | 6.32 | 5.54 | 20.7 | – | 32.2
11 | O=C1/C(=C/c2cccs2)N=C(c2ccccc2)N1c1nc2ccccc2s1 | > 100 | – | > 100 | – | > 100 | > 100 | – | > 100 | – | > 100 | – | > 100 | > 100 | > 100 | – | 29.8
12 | O=P1(N(CCCl)CCCl)NCCCO1 (stereo unspecified) | > 239 | – | > 205 | – | > 250 | > 238 | – | > 250 | – | 220 | – | > 250 | > 231 | > 250 | – | > 250
13 | Cc1cn(C2CC(SCCO)C(CO)O2)c(=O)[nH]c1=O (stereo unspecified) | > 100 | – | > 100 | – | > 100 | > 100 | – | > 100 | – | > 100 | – | > 100 | > 100 | > 100 | – | > 100
